These compounds were tested on calcium channel (e.g., L-type, N-type, etc.) (assay: HEK assay, whole-cell voltage clamp of calcium channel currents in transiently transfected HEK-293T/17 cells). Details: whole-cell patch clamp, holding potential −100 mV, steps to about +10 mV.
Type: cell-based
Protocol: HEK-293T/17 cells are transiently transfected in a similar manner as described in FuGENE 6 Package Insert Version 7, April 2002, Roche Applied Science, Indianapolis, Ind. The cells are plated at 2.5×10^5 cells in 2 mL in a 6-well plate in incubator for one night and achieve a 30˜40% confluence. In a small sterile tube, add sufficient serum-free medium as diluent for FuGENE Transfection Reagent (Roche Applied Science, Indianapolis, Ind.), to a total volume of 100 μL. Add 3 μL of FuGENE 6 Reagent directly into this medium. The mixture is tapped gently to mix. 2 μg of DNA solution (0.8-2.0 μg/μL) is added to the prediluted FuGENE 6 Reagent from above. The DNA/Fugene 6 mixture is gently pipeted to mix the contents and incubated for about 15 minutes at room temperature. The complex mixture is then added to the HEK-293T/17 cells, distributing it around the well, and swirled to ensure even dispersal. The cells are returned to the incubator for 24 hrs. The transfected cells are then replated at density 2.5×10^5 in a 35 mm dish with 5 glass coverslips and grow in low serum(1%) media for 24 hrs. Coverslips with isolated cells are then transferred into chamber and calcium channel (e.g., L-type, N-type, etc.) current or other currents for counter screening are recorded from the transiently transfected HEK-293T/1 7 cells.
The whole-cell voltage clamp configuration of the patch clamp technique is employed to evaluate voltage-dependent calcium currents essentially as described by Thompson and Wong (1991) J. Physiol., 439: 671-689. To record calcium channel (e.g., L-type, N-type, etc.) currents for evaluation of inhibitory potency of compounds (steady-state concentration-response analysis), five pulses of 20-30 ms voltage steps to about +10 mV (the peak of the current voltage relationship) are delivered at five Hz every 30 second from a holding potential at −100 mV. Compound evaluations were carried out essentially as described by Sah D W and Bean B P (1994) Mol Pharmacol. 45(1):84-92. Table 3 contains IC50's for representative compounds.

| SMILES | IC50 |
| --- | --- |
| COc1ccc(OC)c(-c2cnc(SCc3nc4ccccc4[nH]3)n2-c2ccc(Cl)cc2)c1 [Compound 7] | 0.793 µM |
| COc1ccccc1-c1cnc(SCc2cnc(C)s2)n1-c1ccc(Cl)cc1 [Compound 8] | 0.187 µM |
| Cc1ccc(F)cc1-c1cnc(SCc2nc3ccccc3[nH]2)n1-c1ccc(Cl)cc1 [Compound 13] | 0.328 µM |

These compounds were tested on calcium channels (e.g., Cav2.2 subfamily) (assay: Oocyte assay, calcium channel modulation in Xenopus oocyte heterologous expression system). Details: calcium channel (e.g., Cav2.2 subfamily).
Type: cell-based
Protocol: Representative compounds of the formulae herein are screened for activity against calcium channel targets in an assay essentially as described in Neuron January 1997, 18(11): 153-166, Lin et. al.; J. Neurosci. Jul. 1, 2000, 20(13):4768-75, J. Pan and D. Lipsombe; and J. Neurosci., Aug. 15, 2001, 21(16):5944-5951, W. Xu and D. Lipscombe, using Xenopus oocyte heterologeous expression system. The assay is performed on various calcium channels (e.g., Cav2.2subfamily) whereby the modulation of the calcium channel is measured for each compound. Table 2 contains IC50's for representative compounds disclosed in the invention.

| SMILES | IC50 |
| --- | --- |
| Cc1ccc(-n2c(-c3ccc(F)cc3)cnc2SCc2nc3ccccc3[nH]2)cc1 [Compound 4] | 5.7 µM |
| COc1ccc(-n2c(-c3ccc(F)cc3)cnc2SCC(=O)NCc2ccco2)cc1 [Compound 234] | 5.4 µM |
| Cc1ccc(-n2c(-c3ccccc3)cnc2SCc2nc3ccccc3[nH]2)cc1 [Compound 2] | 6.63 µM |
